“Also recorded” adds a separate entry of the source. Where two headings read alike, the source gives them in different places.
What was measured:
[1] = delivered systemically; cited from earlier work
ependymoblastoma = details: intratumoral injection(s), up to ten; suspended in 0.4% aqueous methylcellulose in most suitable formulation; cited from earlier work
[2] = cited from earlier work
[3] = rat, in vivo; cited from earlier work
tumor cells = test: Tumoricidal dose 50% (TD50) comparison; details: 66.7 mg/ml BCNU in absolute ethanol
From the text: Operationally, where cytotoxic, the antineoplastic agent is preferably dissolved in the organic solvent to a concentration such that when a therapeutically effective volume of the antineoplastic solution of the invention is delivered into a neoplastic mass, there results a dose of the agent solute in said mass of at least two logs greater than its tumoricidal dose 50% (TD50), that is, the concentration of agent in said mass that kills 50% of the tumor cells. This ensures that a supralethal concentration of the agent is delivered throughout at least a substantial volume of the tumor mass when the resulting antineoplastic solution is injected directly into the substance of the tumor. As the organic vehicle permeates the tumor mass it transports a therapeutically effective, neoplastically lethal concentration of the cytotoxic agent solute therewith. In this way high levels of the cytotoxic antineoplastic agent can be delivered discretely and with relative safety to the tumor mass. In another sense the water miscible organic vehicle component of the solution can be considered to increase the solubility of the agent within the tumor mass, thereby allowing therapeutically effective toxic levels of the antineoplastic agent to invest the tumor. […]

[4] = Operative mortality following intratumoral injection; type: in vivo, rat (male CDF, Fischer 344); details: following intratumoral BCNU solution injection; 4/72
Description: Rats were anesthetized with ether and pentobarbital sodium (25-30 mg/kg) and placed into the stereotactic frame. The clips and bone wax were carefully removed. The BCNU solution was delivered directly into the tumor through a
Hamilton microsyringe set to the same coordinates and using the same technique as used in the initial tumor implantation. As before, the operative field was cleaned with povidone-iodine solution and the scalp was closed with clips.
The following paradigm was used to assess therapeutic efficacy of the intra-tumorally delivered BCNU antineoplastic solution. All animals received tumor implantation on day zero (0). Controls received no treatment, vehicle controls received a single intratumoral injection of absolute ethanol on day 7. One experimental group received a single injection of intratumoral BCN dissolved in absolute ethanol at a dose of 5 mg/kg body weight on day 7.

[5] = cited from earlier work; remark: listed apart in the source
[6] = Stability of BCNU in ethanol, organic vehicles and aqueous solution; type: physicochemical; details: ethanol vehicle of the exemplary solution
[7] = cited from earlier work; remark: listed apart in the source
T9 gliosarcoma [8] = test: Survival of rats bearing intracerebral T9 gliosarcoma after intratumoral BCNU solution; type: in vivo, rat (male CDF, Fischer 344); details: for % ILS (percent increase in life span): vs control
T9 gliosarcoma [9] = details: cited from earlier work
Lethal dose of BCNU = type: in vivo; details: intraperitoneal BCNU in rats
Description: All intratumoral injections used this 66.7 mg/ml formulation directly. This concentration is about three to four logs greater than the tumoricidal dose 50%. […] This cannot be extrapolated to man, however, because of differences in cross-species toxicity.

[10] = Group 4: IT BCNU 5 mg/kg day 7 + IP BCNU 5 mg/kg day 12, n=14

Molecule: COc1cccc2c1C(=O)c1c(O)c3c(c(O)c1C2=O)C[C@@](O)(C(=O)CO)C[C@@H]3O[C@H]1C[C@H](N)[C@H](O)[C@H](C)O1 [adriamycin]
- organ specific toxicity [1]: cardiotoxicity

Molecule: O=NN(CCCl)C(=O)NC1CCCCC1 [CCNU, 1-(2-chloroethyl)-3-cyclohexyl-1-nitrosourea]
- increase in life span (ependymoblastoma): only modest increases in life span
- water solubility [2]: water insoluble

Molecule: bleomycin
- organ specific toxicity [1]: lung toxicity

Molecule: O=NN(CCCl)C(=O)NCCCl [BCNU, 1,3-bis(2-chloroethyl)-1-nitrosourea]
- lethal dose 10% [3]: 13.3 mg/kg
- concentration of the formulation above the tumoricidal dose 50% (tumor cells): about three to four
- Operative mortality [4]: 5.5%
- half life in serum [5]: about 15 minutes
- solubility in ethanol [6]: soluble to highly cytotoxic levels in ethanol
- stability and bioavailability in ethanol [6]: remains stable and bioavailable therein
- stability in aqueous solution ([7]; aqueous solution): not very stable in aqueous solution
- stability in ethanol ([7]; ethanol): stable in ethanol
- stability in organic water miscible solvent vehicles ([7]; organic water miscible solvent vehicles, compared with aqueous solution): far more stable in the organic water miscible solvent vehicles
- % ILS (percent increase in life span) (T9 gliosarcoma [8]; Group 3: single IT BCNU 5 mg/kg in absolute ethanol, day 7, n=42): 322%
- % Cures (T9 gliosarcoma [8]; Group 3: single IT BCNU 5 mg/kg, day 7, n=42): 43%
- MDS (median day of survival following tumor implantation) (T9 gliosarcoma [8]; Group 3: single intratumoral (IT) injection of BCNU in absolute ethanol, 5 mg/kg, day 7, n=42): 76 days
- % Cures (T9 gliosarcoma [8]; [10]): 36%
- % ILS (percent increase in life span) (T9 gliosarcoma [8]; [10]): 472%
- MDS (median day of survival following tumor implantation) (T9 gliosarcoma [8]; Group 4: IT BCNU in absolute ethanol 5 mg/kg day 7 + IP BCNU 5 mg/kg in 7.5% aqueous ethanol day 12, n=14): 103 days
- animals living a normal lifespan (T9 gliosarcoma [8]; Groups 3 + 4, 600-700 days): nineteen
- animals sacrificed healthy, no observable viable T9 gliosarcoma (T9 gliosarcoma [8]; Groups 3 + 4, days 121, 136, 307, 384): four
- % Cures (T9 gliosarcoma [8]; Groups 3 + 4 combined, n=56): 41%
- MDS (median day of survival following tumor implantation) (T9 gliosarcoma [8]; Groups 3 + 4 combined, n=56): 96 days
- % ILS (percent increase in life span) (T9 gliosarcoma [8]; Groups 3 + 4 combined, n=56): 433%
- therapeutic benefit of adding intraperitoneal BCNU to intratumoral BCNU solution (T9 gliosarcoma [8]; IT + IP vs IT only): did not statistically enhance the therapeutic benefit
- animals which live a normal life span (T9 gliosarcoma [8]; intratumoral BCNU solution treated group, 600-700 days): 41%
- animals that die, phase one (T9 gliosarcoma [8]; intratumoral BCNU solution treated group, days 18-24): 23%
- animals that die, second phase (T9 gliosarcoma [8]; intratumoral BCNU solution treated group, days 25 to 166): 30%
- animals that die, third phase (T9 gliosarcoma [8]; intratumoral BCNU solution treated group, days 251-325): 5%
- water solubility [2]: inherently low water solubility
- ILS (T9 gliosarcoma [9]; BCNU 5 mg/kg, delivered intra-arterially): 57%
- improvement in life span (T9 gliosarcoma [9]; BCNU 5 mg/kg, delivered systemically): no improvement in life span
- ILS (T9 gliosarcoma [9]; BCNU 13.3 mg/kg, delivered intravenously or intra-arterially): 180%
- cures in animals bearing this tumor, prior to this experiment (T9 gliosarcoma [9]; any mode of delivery previously known): neither BCNU nor any other antineoplastic agent has ever produced cures in animals bearing this tumor; also recorded: neither BCNU nor any other single antineoplastic agent has ever been known to produce a single cure in this tumor model
- dose of 5 mg/kg as percentage of the LD10 (Lethal dose of BCNU): ~40%

Molecule: C[C@H]1CC[C@H](NC(=O)N(CCCl)N=O)CC1 [Me-CCNU, 1-(2-chloroethyl)-3-(trans-4-methylcyclohexyl)-1-nitrosourea]
- increase in life span (ependymoblastoma): only modest increases in life span
- water solubility [2]: water insoluble
